In patent US20160251342A1, “ALDEHYDE DERIVATIVE OF SUBSTITUTED OXAZOLIDINONES” (WANBURY LTD., priority 2012, published 2016):
Each block holds one molecule with its values, some of them ahead of it.

How the values were obtained:
[1] = In vitro liver microsomal stability assay, human; type: in vitro ADME; conditions: human microsomes; for % Parent remaning (Human): rivaroxaban itself incubated
Description: (§1) Liver microsomal stability assays are conducted at 1 mg per mL liver microsome protein with an NADPH in phosphate buffer (100 mM, pH 7.4). Test compounds (compound of formula B of the invention) are prepared as solutions in 20% methanol-water and added to the assay mixture (final assay concentration 1 μM) and incubated at 37° C. Aliquots (100 .μ.L) are taken out at times 0, 15, and 30 minutes, and diluted with ice cold acetonitrile containing IS (200 µL) to stop the reactions. Samples are centrifuged at 10,000 RPM for 5 minutes to precipitate proteins. Supernatants are transferred to micro centrifuge tubes and stored at −20° C. for analysis of LC/MS/MS. The percent parent remaining of the test substance is calculated as Ratio of peak area at each time point to peak area ratio at zero min, multiplied by 100. The compound formula (B) is converted to Rivaroxaban in microsomal assay.

thrombus formation [2] = experiment: Venous thrombosis model (rat); type: in vivo, rats (strain: Wistar); conditions: for ED50: Rattus norvegicus, venous thrombosis, per oral, read-out: ED-50 to inhibit the thrombus formation; for Mean thrombus weight (mg) (±SEM): per oral 120 minutes before induction, vehicle 4.36 ± 0.58
Description: Male fasting rats (strain: Wistar) having a weight 280-320 g were anaesthetized using isoflurane/oxygen. The left jugular vein was exposed (about 2 cm). The formation of a venous thrombus was induced by mechanical injury to the blood vessel in accordance with the method described by K. Meng, et al., Naunyn-Schmiedeberg's Arch. Pharmacol. (1977), 301, 115-119. To this end, the jugular vein was clamped from the blood flow, cooled to -12° C. in a metal trough for 2 minutes and, to standardize the size of the thrombi, simultaneously compressed using a weight of 200 g. The blood flow was re-opened and the wound was closed. After 4 hours, the wound was re-opened to remove the thrombi from the injured sections of the vessel. The moist weight of the thrombi was determined immediately. […] Animals were grouped by body weight stratification and randomization (Represented by G12-[…]). The grouping was done one day prior to the experiment initiation.

[3] = In vitro stability in mouse plasma (LC-MS); type: in vitro ADME; conditions: for % Parent remaining (Mouse): rivaroxaban itself incubated
Description: The final concentration of the test compound in the assay is 5 micromolar. […] C. The 100 microlitres of aliquot at time point was removed and diluted with ice cold acetonitrile containing IS (200 µL) to stop the reactions. Samples are centrifuged at 10,000 RPM for 5 minutes to precipitate proteins. Supernatants are transferred to micro centrifuge tubes and stored at −20° C. for analysis of LC/MS/MS. The percent parent remaining of the test substance is calculated as ratio of peak area at each time point to peak area ratio at zero min, multiplied by 100.
API 4000, ESI Agilent 1100 column: Gemini Nx 100 mm×4.6 mm 5.μ; column temperature: 30° C.; eluent A: 0.1% formic acid in water, eluent B: acetonitrile; gradient: 0-2.5 min 95% A, 5% B; 2.5-2.6 min 5% A, 95% B; 2.6-4.2 min 95% A, 5% B; flow rate: 0.8 ml/min; ESI. Q1:464.098, Q3:144.255

[4] = In vitro liver microsomal stability assay, mouse; type: in vitro ADME; conditions: mouse microsomes
Description: as §1

thrombus formation [5] = experiment: Arterial thrombosis model (rat); type: in vivo, rats (strain: Wistar); conditions: for ED50: Rattus norvegicus, arterial thrombosis, read-out: ED-50 to inhibit the thrombus formation
Description: Male fasting rats (strain: Wistar) having a weight 280-320 g were anaesthetized using isoflurane/oxygen. The left carotid artery was exposed (about 2 cm). The formation of an arterial thrombus was induced by mechanical injury to the blood vessel in accordance with the method described by K. Meng et al., Naunyn-Schmiedeberg's Arch. Pharmacol. (1977), 301, 115-119. To this end, the exposed carotid artery was clamped from the blood flow, cooled to -20° C. in a metal trough for 2 minutes and, to standardize the size of the thrombi, simultaneously compressed using a weight of 200 g. […] The proximal clamp was removed, and the wound was closed and re-opened after 2 hours to remove the injured section of the vessel. The section of the vessel was opened longitudinally and the thrombus was removed from the injured section of the vessel. The moist weight of the thrombi was determined immediately. […] Animals were grouped by body weight stratification and randomization (Represented by G1-[…]). The grouping was done one day prior to the experiment initiation.

thrombus formation [6] = experiment: Arteriovenous shunt model (rat); type: in vivo, rats (strain: Wistar); conditions: for ED50: Rattus norvegicus, arteriovenous shunt, read-out: ED-50 to inhibit the thrombus formation
Description: Fasting male rats (strain: Wistar) having a weight of 280-320 g were anaesthetized using a isoflurane/oxygen. Thrombus formation was initiated in an arteriovenous shunt in accordance with the method described by Christopher N. Berry et al., Br. J. Pharmacol. (1994), 113, 1209-1214. To this end, the left jugular vein and the right carotid artery were exposed. The two vessels were connected by an extracorporeal shunt using a 10 cm long Poly Vinyl Chloride tube (.P.V.C.) 9 internal diameter i.d. 0.5 mm), in middle of PVC tubing a 5 cm Scalp vein tube (i.d. 1.5 mm) will be attached which contained a 3 cm long roughened surface nylon thread which will be arranged to form a loop to form a thrombogenic surface. The extracorporeal circulation was maintained for 15 minutes. The shunt was then removed and the nylon thread with the thrombus was weighed immediately. The weight of the nylon thread on its own had been determined before the experiment was started. Before the extracorporeal circulation was set up, The test item [compound formula (B) (Wanxaban)/reference item (Rivaroxaban)/vehicle will be administered to the animals as per routes preferred. Animals were grouped by body weight stratification and randomization (Represented by G1-[…]). The grouping was done one day prior to the experiment initiation.

[7] = In vitro liver microsomal stability assay, rat; type: in vitro ADME; conditions: rat microsomes; for % Parent remaining (rat): rivaroxaban itself incubated
Description: as §1

[8] = intravenous 5 minutes before induction, Dose 0.5, vehicle 2.08 ± 0.47
[9] = intravenous 5 minutes before induction, Dose 1, vehicle 2.08 ± 0.47
[10] = intravenous 5 minutes before induction, Dose 2, vehicle 2.08 ± 0.47
[11] = intravenous 5 minutes before induction, Dose 3, vehicle 2.08 ± 0.47
[12] = intravenous 5 minutes before induction, Dose 4, vehicle 2.08 ± 0.47
[13] = per oral 120 minutes before induction, Dose 2.5, vehicle 1.70 ± 0.39
[14] = per oral 120 minutes before induction, Dose 5.0, vehicle 1.70 ± 0.39
[15] = per oral 120 minutes before induction, Dose 10, vehicle 1.70 ± 0.39
[16] = per oral 120 minutes before induction, Dose 15, vehicle 1.70 ± 0.39
[17] = per oral 120 minutes before induction, Dose 20, vehicle 1.70 ± 0.39
[18] = intravenous, Dose 0.5, vehicle 27.26 ± 1.23
[19] = intravenous, Dose 1, vehicle 27.26 ± 1.23
[20] = intravenous, Dose 2, vehicle 27.26 ± 1.23
[21] = intravenous, Dose 3, vehicle 27.26 ± 1.23
[22] = intravenous, Dose 4, vehicle 27.26 ± 1.23
[23] = per oral, Dose 2.5, vehicle 26.95 ± 1.23
[24] = per oral, Dose 5, vehicle 26.95 ± 1.23
[25] = per oral, Dose 10, vehicle 26.95 ± 1.23
[26] = per oral, Dose 15, vehicle 26.95 ± 1.23
[27] = per oral, Dose 20, vehicle 26.95 ± 1.23

% Parent remaning (Human) ([1]; 0 min): 100% | % Parent remaning (Human) ([1]; 15 min): 0.01% | % Parent remaning (Human) ([1]; 30 min): 0.01% | Conversion summary: unchanged, stable in plasma ([3]; rivaroxaban itself): unchanged, | % Parent remaining (Mouse) ([3]; 0 min): 100% | % Parent remaining (Mouse) ([3]; 30 min): 100% | % Parent remaining (Mouse) ([3]; 60 min): 100% | Observation: metabolism ([4]; rivaroxaban itself): High | Observation: metabolism ([7]; rivaroxaban itself): High | % Parent remaining (rat) ([7]; 0 min): 100% | % Parent remaining (rat) ([7]; 15 min): 0.01% | % Parent remaining (rat) ([7]; 30 min): 0.02%
Compound: O=C(NC[C@H]1CN(c2ccc(N3CCOCC3=O)cc2)C(=O)O1)c1ccc(Cl)s1 [Rivaroxaban, 5-chloro-N-({(5S)-2-oxo-3-[4-(3-oxomorpholin-4-yl)phenyl]-1,3-oxazolidin-5-yl}methyl)thiophene-2-carboxamide, reference compound]
ED50 (thrombus formation [2]): 12.3 mg/kg | Mean thrombus weight (mg) (±SEM) (thrombus formation [2]; Dose 2.5): 2.93 ± 0.50 mg | Mean thrombus weight (mg) (±SEM) (thrombus formation [2]; Dose 5.0): 2.06 ± 0.73 mg | Mean thrombus weight (mg) (±SEM) (thrombus formation [2]; Dose 10): 2.06 ± 0.53 mg | Mean thrombus weight (mg) (±SEM) (thrombus formation [2]; Dose 15): 1.43 ± 0.46 mg | Mean thrombus weight (mg) (±SEM) (thrombus formation [2]; Dose 20): 1.66 ± 0.74 mg | ED50 (thrombus formation [5]; intravenous): 2.5 mg/kg | ED50 (thrombus formation [5]; per oral): 24.2 mg/kg | Mean thrombus weight (mg) (±SEM) (thrombus formation [5]; [8]): 1.10 ± 0.32 mg | Mean thrombus weight (mg) (±SEM) (thrombus formation [5]; [9]): 0.62 ± 0.08 mg | Mean thrombus weight (mg) (±SEM) (thrombus formation [5]; [10]): 0.70 ± 0.11 mg | Mean thrombus weight (mg) (±SEM) (thrombus formation [5]; [11]): 0.41 ± 0.05 mg | Mean thrombus weight (mg) (±SEM) (thrombus formation [5]; [12]): 0.34 ± 0.08 mg | Mean thrombus weight (mg) (±SEM) (thrombus formation [5]; [13]): 1.71 ± 0.45 mg | Mean thrombus weight (mg) (±SEM) (thrombus formation [5]; [14]): 1.78 ± 0.66 mg | Mean thrombus weight (mg) (±SEM) (thrombus formation [5]; [15]): 0.84 ± 0.23 mg | Mean thrombus weight (mg) (±SEM) (thrombus formation [5]; [16]): 0.78 ± 0.14 mg | Mean thrombus weight (mg) (±SEM) (thrombus formation [5]; [17]): 0.65 ± 0.10 mg | ED50 (thrombus formation [6]; intravenous): 1.7 mg/kg | ED50 (thrombus formation [6]; per oral): 26.2 mg/kg | Mean thrombus weight (mg) (±SEM) (thrombus formation [6]; [18]): 13.95 ± 1.49 mg | Mean thrombus weight (mg) (±SEM) (thrombus formation [6]; [19]): 10.84 ± 1.16 mg | Mean thrombus weight (mg) (±SEM) (thrombus formation [6]; [20]): 10.83 ± 1.11 mg | Mean thrombus weight (mg) (±SEM) (thrombus formation [6]; [21]): 6.92 ± 0.57 mg | Mean thrombus weight (mg) (±SEM) (thrombus formation [6]; [22]): 7.56 ± 0.59 mg | Mean thrombus weight (mg) (±SEM) (thrombus formation [6]; [23]): 19.2 ± 0.2 mg | Mean thrombus weight (mg) (±SEM) (thrombus formation [6]; [24]): 17.26 ± 0.75 mg | Mean thrombus weight (mg) (±SEM) (thrombus formation [6]; [25]): 15.41 ± 1.25 mg | Mean thrombus weight (mg) (±SEM) (thrombus formation [6]; [26]): 16.9 ± 0.49 mg | Mean thrombus weight (mg) (±SEM) (thrombus formation [6]; [27]): 9.7 ± 1.34 mg

Amount of test product detected (metabolised to rivaroxaban from zero min) [1]: Neglible | Amount of test product detected (conversion to rivaroxaban from zero min) [3]: min. Neglible | Amount of test product detected (metabolised to rivaroxaban from zero min) [4]: min. Neglible | Amount of test product detected (metabolised to rivaroxaban from zero min) [7]: min. Neglible
Compound: O=CN(C[C@H]1CN(c2ccc(N3CCOCC3=O)cc2)C(=O)O1)C(=O)c1ccc(Cl)s1 [compound formula (B), 5-chloro-N-formyl-N-({(5S)-2-oxo-3-[4-(3-oxomorpholin-4-yl)phenyl]-1,3-oxazolidin-5-yl}methyl)thiophene-2-carboxamide]
ED50 (thrombus formation [2]): 1.9 mg/kg | Mean thrombus weight (mg) (±SEM) (thrombus formation [2]; Dose 2.5): 3.81 ± 1.55 mg | Mean thrombus weight (mg) (±SEM) (thrombus formation [2]; Dose 5.0): 1.60 ± 0.10 mg | Mean thrombus weight (mg) (±SEM) (thrombus formation [2]; Dose 10): 0.66 ± 0.09 mg | Mean thrombus weight (mg) (±SEM) (thrombus formation [2]; Dose 15): 0.53 ± 0.18 mg | Mean thrombus weight (mg) (±SEM) (thrombus formation [2]; Dose 20): 0.62 ± 0.16 mg | ED50 (thrombus formation [5]; intravenous): 0.5 mg/kg | ED50 (thrombus formation [5]; per oral): 4 mg/kg | Mean thrombus weight (mg) (±SEM) (thrombus formation [5]; [8]): 1.32 ± 0.17 mg | Mean thrombus weight (mg) (±SEM) (thrombus formation [5]; [9]): 0.60 ± 0.09 mg | Mean thrombus weight (mg) (±SEM) (thrombus formation [5]; [10]): 0.61 ± 0.09 mg | Mean thrombus weight (mg) (±SEM) (thrombus formation [5]; [11]): 0.47 ± 0.05 mg | Mean thrombus weight (mg) (±SEM) (thrombus formation [5]; [12]): 0.36 ± 0.03 mg | Mean thrombus weight (mg) (±SEM) (thrombus formation [5]; [13]): 1.15 ± 0.13 mg | Mean thrombus weight (mg) (±SEM) (thrombus formation [5]; [14]): 0.71 ± 0.04 mg | Mean thrombus weight (mg) (±SEM) (thrombus formation [5]; [15]): 0.78 ± 0.14 mg | Mean thrombus weight (mg) (±SEM) (thrombus formation [5]; [16]): 0.58 ± 0.11 mg | Mean thrombus weight (mg) (±SEM) (thrombus formation [5]; [17]): 0.44 ± 0.04 mg | ED50 (thrombus formation [6]; intravenous): 1 mg/kg | ED50 (thrombus formation [6]; per oral): 22.8 mg/kg | Mean thrombus weight (mg) (±SEM) (thrombus formation [6]; [18]): 18.7 ± 1.22 mg | Mean thrombus weight (mg) (±SEM) (thrombus formation [6]; [19]): 13.99 ± 2 mg | Mean thrombus weight (mg) (±SEM) (thrombus formation [6]; [20]): 8.45 ± 0.75 mg | Mean thrombus weight (mg) (±SEM) (thrombus formation [6]; [21]): 5.83 ± 0.31 mg | Mean thrombus weight (mg) (±SEM) (thrombus formation [6]; [22]): 4.81 ± 0.31 mg | Mean thrombus weight (mg) (±SEM) (thrombus formation [6]; [23]): 3.81 ± 1.55 mg | Mean thrombus weight (mg) (±SEM) (thrombus formation [6]; [24]): 1.60 ± 0.10 mg | Mean thrombus weight (mg) (±SEM) (thrombus formation [6]; [25]): 0.66 ± 0.09 mg | Mean thrombus weight (mg) (±SEM) (thrombus formation [6]; [26]): 0.53 ± 0.18 mg | Mean thrombus weight (mg) (±SEM) (thrombus formation [6]; [27]): 0.62 ± 0.16 mg
